Test results published in the NIST ThermoML archive (doi:10.1021/je0604232).
Numbers after ± are expanded uncertainties.

Assay: molar heat capacity at constant pressure
Details: Liquid

SMILES | molar heat capacity at constant pressure (303.15 K, 101 kPa) [J/K/mol] | molar heat capacity at constant pressure (308.15 K, 101 kPa) [J/K/mol] | molar heat capacity at constant pressure (313.15 K, 101 kPa) [J/K/mol] | molar heat capacity at constant pressure (318.15 K, 101 kPa) [J/K/mol] | molar heat capacity at constant pressure (323.15 K, 101 kPa) [J/K/mol] | molar heat capacity at constant pressure (328.15 K, 101 kPa) [J/K/mol] | molar heat capacity at constant pressure (333.15 K, 101 kPa) [J/K/mol] | molar heat capacity at constant pressure (338.15 K, 101 kPa) [J/K/mol] | molar heat capacity at constant pressure (343.15 K, 101 kPa) [J/K/mol] | molar heat capacity at constant pressure (348.15 K, 101 kPa) [J/K/mol] | molar heat capacity at constant pressure (353.15 K, 101 kPa) [J/K/mol] | further results
NCCCO [3-amino-1-propanol] | 204 ± 2 | 207 ± 2 | 208 ± 2 | 208 ± 2 | 209 ± 2 | 210 ± 2 | 211 ± 2 | 213 ± 2 | 214 ± 2 | 216 ± 2 | 217 ± 2 | –
CC(O)CN (configuration not stated) [1-amino-2-propanol] | 209 ± 2 | 213 ± 2 | 214 ± 2 | 215 ± 2 | 217 ± 2 | 218 ± 2 | 221 ± 2 | 223 ± 2 | 225 ± 2 | 228 ± 2 | 230 ± 2 | –
CN(CCO)CCO [N-methyldiethanolamine] | – | – | – | – | – | – | – | – | – | – | – | molar heat capacity at constant pressure (303.15 K, 101.33 kPa): 273 ± 2 J/K/mol; molar heat capacity at constant pressure (308.15 K, 101.33 kPa): 276 ± 2 J/K/mol; molar heat capacity at constant pressure (313.15 K, 101.33 kPa): 279 ± 2 J/K/mol; molar heat capacity at constant pressure (318.15 K, 101.33 kPa): 282 ± 2 J/K/mol; molar heat capacity at constant pressure (323.15 K, 101.33 kPa): 285 ± 2 J/K/mol; molar heat capacity at constant pressure (328.15 K, 101.33 kPa): 288 ± 2 J/K/mol; molar heat capacity at constant pressure (333.15 K, 101.33 kPa): 290 ± 2 J/K/mol; molar heat capacity at constant pressure (338.15 K, 101.33 kPa): 294 ± 2 J/K/mol; molar heat capacity at constant pressure (343.15 K, 101.33 kPa): 298 ± 2 J/K/mol; molar heat capacity at constant pressure (348.15 K, 101.33 kPa): 301 ± 3 J/K/mol; molar heat capacity at constant pressure (353.15 K, 101.33 kPa): 304 ± 3 J/K/mol
NCCNCCO [N-(2-aminoethyl)ethanolamine] | 279 ± 2 | 284 ± 2 | 285 ± 2 | 286 ± 2 | 287 ± 2 | 289 ± 2 | 290 ± 2 | 292 ± 2 | 293 ± 2 | 295 ± 2 | 296 ± 2 | –
NCCO [2-aminoethan-1-ol] | – | – | – | – | – | – | – | – | – | – | – | molar heat capacity at constant pressure (303.15 K, 101.33 kPa): 168 ± 1 J/K/mol; molar heat capacity at constant pressure (308.15 K, 101.33 kPa): 169 ± 1 J/K/mol; molar heat capacity at constant pressure (313.15 K, 101.33 kPa): 169 ± 1 J/K/mol; molar heat capacity at constant pressure (318.15 K, 101.33 kPa): 171 ± 2 J/K/mol; molar heat capacity at constant pressure (323.15 K, 101.33 kPa): 173 ± 2 J/K/mol; molar heat capacity at constant pressure (328.15 K, 101.33 kPa): 174 ± 2 J/K/mol; molar heat capacity at constant pressure (333.15 K, 101.33 kPa): 175 ± 2 J/K/mol; molar heat capacity at constant pressure (338.15 K, 101.33 kPa): 178 ± 2 J/K/mol; molar heat capacity at constant pressure (343.15 K, 101.33 kPa): 179 ± 2 J/K/mol; molar heat capacity at constant pressure (348.15 K, 101.33 kPa): 180 ± 2 J/K/mol; molar heat capacity at constant pressure (353.15 K, 101.33 kPa): 182 ± 2 J/K/mol
CN(C)CCO [2-(N,N-dimethylamino)ethanol] | 213 ± 2 | 215 ± 2 | 217 ± 2 | 219 ± 2 | 221 ± 2 | 222 ± 2 | 223 ± 2 | 223 ± 2 | 223 ± 2 | 224 ± 2 | 226 ± 2 | –
CNCCO [2-(methylamino)ethanol] | 194 ± 2 | 199 ± 2 | 200 ± 2 | 202 ± 2 | 203 ± 2 | 205 ± 2 | 206 ± 2 | 207 ± 2 | 208 ± 2 | 210 ± 2 | 212 ± 2 | –
